# Results reported in ChEMBL document CHEMBL1201862, “PubChem BioAssay data set” (2004).
# Activity calls are given as the source filed them. For most assays here, no stated cut-off is given here; in the data, actives have a measured EC50 and inactives only a lower limit.
# Key:
# cells [1] = type: functional, cell-based
# cells [2] = type: functional, cell-based; remark: listed apart in the source
# [3] = target: T1, Short transient receptor potential channel 4 (Mus musculus, UniProt Q9QUQ5); assay: block of DAMGO-driven TRPC4 calcium entry – cell-based, HEK293 TRPC4/mu-opioid, Fluo-4 calcium, dose response (AID 434942); type: functional;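 further: potency of inhibitors blocking the TRPC4 calcium response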
# T1 sequence (Q9QUQ5 whole entry): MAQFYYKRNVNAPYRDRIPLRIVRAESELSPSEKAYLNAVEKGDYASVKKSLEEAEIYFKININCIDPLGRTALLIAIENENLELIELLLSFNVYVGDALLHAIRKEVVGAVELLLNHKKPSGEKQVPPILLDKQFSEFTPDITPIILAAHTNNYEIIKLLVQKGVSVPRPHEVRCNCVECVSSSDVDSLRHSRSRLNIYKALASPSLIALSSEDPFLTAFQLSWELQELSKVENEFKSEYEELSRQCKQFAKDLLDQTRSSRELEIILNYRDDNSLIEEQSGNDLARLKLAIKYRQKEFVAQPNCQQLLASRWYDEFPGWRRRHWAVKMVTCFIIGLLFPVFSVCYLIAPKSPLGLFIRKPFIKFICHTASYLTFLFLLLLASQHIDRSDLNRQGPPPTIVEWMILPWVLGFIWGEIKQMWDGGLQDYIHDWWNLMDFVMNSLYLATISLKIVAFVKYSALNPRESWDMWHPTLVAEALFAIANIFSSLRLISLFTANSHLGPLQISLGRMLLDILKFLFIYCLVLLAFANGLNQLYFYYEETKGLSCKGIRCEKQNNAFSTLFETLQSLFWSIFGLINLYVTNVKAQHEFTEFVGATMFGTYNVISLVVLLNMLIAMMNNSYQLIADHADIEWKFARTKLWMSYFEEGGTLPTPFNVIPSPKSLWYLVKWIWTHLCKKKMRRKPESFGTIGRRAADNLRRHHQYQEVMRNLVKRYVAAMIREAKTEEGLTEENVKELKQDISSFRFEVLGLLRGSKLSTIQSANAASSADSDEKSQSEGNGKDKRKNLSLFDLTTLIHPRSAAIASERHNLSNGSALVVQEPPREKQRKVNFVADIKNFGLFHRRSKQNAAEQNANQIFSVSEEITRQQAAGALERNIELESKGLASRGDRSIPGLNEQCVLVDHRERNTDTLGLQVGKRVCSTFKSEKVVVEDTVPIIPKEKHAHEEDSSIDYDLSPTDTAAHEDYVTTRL
# [4] = target: T2, Carboxy-terminal domain RNA polymerase II polypeptide A small phosphatase 1 (Homo sapiens, UniProt Q9GZU7); assay: CTDSP1 inhibitors, concentration-response, biochemical, absorbance readout, ultra-high-throughput screen actives (AID 540297); type: functional
# T2 sequence (Q9GZU7 whole entry): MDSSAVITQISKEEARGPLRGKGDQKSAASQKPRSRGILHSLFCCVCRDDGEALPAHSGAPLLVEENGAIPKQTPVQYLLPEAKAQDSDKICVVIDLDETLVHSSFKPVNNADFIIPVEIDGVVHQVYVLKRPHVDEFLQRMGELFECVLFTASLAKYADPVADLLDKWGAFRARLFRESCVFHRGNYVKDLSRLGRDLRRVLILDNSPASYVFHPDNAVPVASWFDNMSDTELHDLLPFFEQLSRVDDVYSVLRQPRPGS
# cells [5] = type: functional
# [6] = target: T3, Calpain-2 catalytic subunit (Sus scrofa, UniProt P43367); assay: m-calpain protease blockers, concentration series – biochemical, fluorogenic peptide substrate, dose response (AID 1420); type: functional
# T3 sequence (P43367 whole entry): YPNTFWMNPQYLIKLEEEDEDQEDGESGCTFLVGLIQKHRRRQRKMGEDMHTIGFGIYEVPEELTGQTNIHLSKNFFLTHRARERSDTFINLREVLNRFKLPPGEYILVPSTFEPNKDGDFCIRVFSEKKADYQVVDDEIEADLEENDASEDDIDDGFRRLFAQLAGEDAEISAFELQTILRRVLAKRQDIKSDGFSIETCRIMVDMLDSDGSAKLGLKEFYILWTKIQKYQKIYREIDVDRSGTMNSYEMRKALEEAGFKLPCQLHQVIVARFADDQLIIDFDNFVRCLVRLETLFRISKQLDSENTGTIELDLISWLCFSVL
# [7] = target: T4, Corticotropin-releasing factor receptor 2/Corticotropin-releasing factor-binding protein (Homo sapiens, UniProt P24387+Q13324); assay: activators of CRF receptor 2 with binding protein – uHTS hits, confirmation (AID 602473); type: functional; settings: read-out: EC50_Mean
# T4 sequence (Q13324 whole entry): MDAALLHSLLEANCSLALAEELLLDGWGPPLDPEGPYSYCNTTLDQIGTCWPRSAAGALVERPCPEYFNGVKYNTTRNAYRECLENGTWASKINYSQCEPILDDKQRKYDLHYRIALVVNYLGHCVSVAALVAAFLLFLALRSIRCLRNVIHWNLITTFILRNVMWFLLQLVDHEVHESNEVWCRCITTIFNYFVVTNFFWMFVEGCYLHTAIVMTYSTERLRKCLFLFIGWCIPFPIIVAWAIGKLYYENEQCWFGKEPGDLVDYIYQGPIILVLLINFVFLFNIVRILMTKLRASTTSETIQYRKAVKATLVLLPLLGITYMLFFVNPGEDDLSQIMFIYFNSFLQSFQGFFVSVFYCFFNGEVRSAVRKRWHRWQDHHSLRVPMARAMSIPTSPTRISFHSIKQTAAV
# T4 sequence (P24387 whole entry): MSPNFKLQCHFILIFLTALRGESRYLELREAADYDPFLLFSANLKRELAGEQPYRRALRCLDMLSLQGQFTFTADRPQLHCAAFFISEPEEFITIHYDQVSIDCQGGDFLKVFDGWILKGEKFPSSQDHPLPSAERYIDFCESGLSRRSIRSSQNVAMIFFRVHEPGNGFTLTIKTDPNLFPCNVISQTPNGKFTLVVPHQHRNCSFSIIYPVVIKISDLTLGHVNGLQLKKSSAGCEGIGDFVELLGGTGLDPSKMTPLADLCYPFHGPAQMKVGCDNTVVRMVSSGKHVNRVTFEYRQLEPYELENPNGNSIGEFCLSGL
# [8] = Luminescence Cell-Based Dose Response HTS to Identify Inhibitors of 5'UTR Stem-Loop Driven Prion Protein mRNA Translation in H4 Neuroglioblastoma Cells. [Related pubchem assays: 1827 (Project Summary), 1813 (Primary HTS)]; type: functional
# [9] = alpha-synuclein stem-loop luciferase translation blockers – H4 neuroglioma cells, luminescence, confirmation (AID 1988); type: functional, cell-based
# [10] = luciferase reporter signal suppression in cells – H4 neuroglioma cells, luminescence, dose response (AID 1990); type: functional, cell-based
# [11] = target: T4, Corticotropin-releasing factor receptor 2/Corticotropin-releasing factor-binding protein; assay: Dose Response confirmation of uHTS hits for small molecule antagonists of the CRF-binding protein and CRF-R2 receptor complex.; type: functional; settings: read-out: IC50_Mean
# Streptococcus = assay: GAS UMAA2166 growth inhibition – luminescence, BacTiterGlo, counter-screen for streptokinase expression inhibitor project, dose response (AID 1915); type: functional, organism-based;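 further: potency for reduction of bacterial viability or growth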
# [12] = system: Streptococcus sp. 'group A'; assay: Streptococcus pyogenes SK(-)GAS viability under kanamycin – luminescence, BacTiterGlo, confirmation, counter-screen for streptokinase expression inhibitor project, dose response (AID 1900); type: functional, organism-based
# [13] = blockers of HIV-1 ZM109 envelope-driven cell-cell fusion – HeLa effector, CEM target cells, luciferase, cherry-pick, dose response (AID 652058); type: functional, cell-based;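 further: luciferase signal from HIV-1 Env mediated cell-cell fusion of effector and target cells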
# [14] = Trypanosoma cruzi growth suppression in host cells – NIH3T3 host cells, beta-gal luminescence, confirmation (AID 2044); type: functional, cell-based;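 further: intracellular parasites grown in NIH/3T3 mouse fibroblasts as host cells; luminescent beta-galactosidase reporter signal from transgenic T. cruzi replicating inside host cells; inhibitors lower the luminescence signal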
# [15] = NIH3T3 cell viability loss – ATP luminescence, mouse fibroblasts, counter-screen, dose response (AID 2010); type: functional, cell-based;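 further: cells exposed to compound for about 90 hours before reading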
# [16] = NIH-3T3 fibroblast cytotoxicity, dose response, cytotoxicity control, cell-based, fluorescence, Alamar Blue, secondary assay (AID 2327); type: functional;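 further: NIH-3T3 mouse fibroblasts cultured with fluconazole at 8 µg/mL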
# [17] = Luminescence Cell-Based Dose Retest to Confirm Inhibitors of Cancer Stem Cells. [Related pubchem assays (depositor defined):AID2717, AID2721]; type: functional; settings: Homo sapiens
# [18] = fluconazole-exposed Candida albicans growth modulators – fluorescence, retest, confirmation (AID 2467); type: functional, cell-based
# [19] = viability of PTEN-deleted HCT116 cells – cell-based, HCT116 PTEN knockout, dose response (AID 1047); type: functional;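 further: HCT116 colon tumor cells with PTEN knocked out; cells exposed to compound for 60 hours before readout; potency for loss of cell viability measured by luminescence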
# Streptokinase A = target: T5, Streptokinase A (Streptococcus pyogenes serotype M1, UniProt P10520); assay: viability-normalized secreted streptokinase activity reduction – plasminogen activation absorbance, OD405, dose response (AID 1914); type: functional, Streptococcus pyogenes M1 GAS;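 further: secreted streptokinase activity via plasminogen activation per viability signal from cell pellet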
# T5 sequence (P10520 whole entry): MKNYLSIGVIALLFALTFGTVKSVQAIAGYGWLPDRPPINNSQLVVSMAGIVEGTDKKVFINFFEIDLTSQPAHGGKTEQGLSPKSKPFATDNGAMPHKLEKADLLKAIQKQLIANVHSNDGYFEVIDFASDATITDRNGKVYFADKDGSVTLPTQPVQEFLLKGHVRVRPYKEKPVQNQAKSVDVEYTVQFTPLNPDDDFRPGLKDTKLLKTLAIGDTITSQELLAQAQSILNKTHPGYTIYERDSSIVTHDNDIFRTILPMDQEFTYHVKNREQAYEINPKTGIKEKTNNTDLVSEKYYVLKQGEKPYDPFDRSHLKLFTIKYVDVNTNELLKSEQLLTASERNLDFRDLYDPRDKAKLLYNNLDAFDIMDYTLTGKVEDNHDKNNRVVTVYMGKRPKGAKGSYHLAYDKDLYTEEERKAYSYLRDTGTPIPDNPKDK
# [20] = viability of HCT116 lacking mutant beta-catenin – cell-based, human colon tumor, dose response (AID 1045); type: functional;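 further: HCT116 colon tumor cells with beta catenin knocked out; cells exposed to compound for 60 hours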
# [21] = microbe, parasite or virus in culture; type: functional; settings: Mycobacterium tuberculosis
compound,measurement,setting,value
O=C(NC1CCCC1)c1cc(-c2cccs2)on1,EC50,cells [1],108 µM (active)
same,EC50,cells [2],52.2 µM (active)
Cc1ncsc1CCOC(=O)C12CC3CC(CC(C3)C1)C2,EC50,[3],5.31 µM (active)
Cc1ccc(NC(=O)c2cc(-c3ccc(C)c(C)c3O)n[nH]2)cc1C,IC50,[4],8.08 µM (active)
COc1ccc(O)c(C(=O)c2cnc3c(c2)c(=O)[nH]c(=O)n3C)c1,EC50,[3],1.5 µM (active)
O=C(OCCCCN1C(=O)c2ccccc2C1=O)c1ccc(Br)o1,IC50,cells [5],46.8 µM (active)
CC1CC(C)CN(C(=O)Cn2c(=O)n(CCCCC(=O)NCc3ccco3)c(=O)c3ccccc32)C1 (centres undefined),IC50,[6],> 50 µM (not active)
CCN(CC)CCOC(=O)C(Cc1ccco1)Cc1cccc2ccccc12 (centres undefined),EC50,[7],> 53 µM (inactive)
same,EC50,[8],> 120 µM (not active)
same,EC50,[9],> 120 µM (not active)
same,EC50,[10],> 120 µM (not active)
same,IC50,[11],> 47.1 µM (inactive)
same,EC50,cells [1],> 350 µM (not active)
same,EC50,cells [2],> 350 µM (not active)
C#CCSc1nnc(-c2ccc([N+](=O)[O-])cc2)o1,IC50,cells [5],9.4 µM (active)
Cc1cc(=O)oc2cc(NC(=O)c3ccc(OC(F)F)cc3)ccc12,IC50,[4],10.2 µM (active)
O=C(Nc1nc2ccccc2n1CCN1CCCC1)c1ccc(Cl)cc1,IC50,cells [5],25.4 µM (active)
O=[N+]([O-])c1cccc(/C=C/c2ccc3cccc(O)c3n2)c1,EC50,Streptococcus,7.37 µM (active)
same,EC50,cells [1],> 350 µM (not active)
same,EC50,cells [2],7.51 µM (active)
same,EC50,[12],3.36 µM (active)
O=C(OCCCOC(=O)c1ccc([N+](=O)[O-])o1)c1ccc([N+](=O)[O-])o1,IC50,cells [5],< 0.1 µM (active)
Cn1nnnc1SCCNCc1ccccc1OCc1ccc(Cl)cc1,EC50,[3],1.33 µM (active)
CC(C)Cc1nnc(NC(=O)CCC(=O)N2CCC3(CC2)OCCO3)s1,EC50,cells [1],> 350 µM (not active)
same,EC50,cells [2],> 350 µM (not active)
O=C(CN1CCCCCCC1)Nc1ccc(Cl)cc1Cl,IC50,[6],4.92 µM (not active)
Cc1cc(OCc2cc(C(=O)NCC3(C)COC3)no2)cc(C)c1Cl,EC50,[3],2.37 µM (active)
Cc1ccc2c(c1)N(C(=O)CCC(=O)Nc1ccccc1Br)CC(C)O2 (centres undefined),EC50,[3],1.68 µM (active)
COc1ccc(C(=O)OCC(=O)NCc2ccco2)cc1OC,IC50,[4],9.73 µM (active)
Cc1cc(Br)c(NC(=O)CN(C)CCOc2ccccc2)c(Br)c1,EC50,[3],5.96 µM (active)
C=CCOc1ccc(Br)cc1CNC(C)(C)CO,EC50,[3],3.76 µM (active)
CN1/C(=C\C(=O)COC(=O)C2COc3ccccc3O2)C(C)(C)c2ccccc21 (centres undefined),IC50,cells [5],48.2 µM (active)
COc1ccc(-n2c(C)csc2=S)cc1,EC50,cells [1],> 350 µM (not active)
same,EC50,cells [2],> 350 µM (not active)
CCOc1cc(CNCc2cccs2)ccc1OCC(=O)NC(C)(C)C,EC50,[3],2.11 µM (active)
Cc1cccc(NC(=O)C2CC(=O)N=C(Nc3nc4ccccc4s3)N2)c1 (centres undefined),EC50,cells [1],> 350 µM (not active)
same,EC50,cells [2],> 350 µM (not active)
CCc1ccc(NC(=O)C(=O)NNC(=O)COc2cccc(OC)c2)cc1,IC50,cells [5],5.58 µM (active)
O=C(C[C@H]1C[C@@H]2c3cc(NC(=O)Nc4ccc(F)cc4)ccc3O[C@@H]2[C@@H](CO)O1)NCC1CC1,AC50,[13],41.4 µM (active)
Cc1[nH]n(S(=O)(=O)Cc2ccccc2)c(=O)c1N=Nc1ccccc1Cl,IC50,cells [5],8.42 µM (active)
Cc1cc(SCC(=O)N/N=C/c2ccc(O)cc2O)c(C)cc1Br,EC50,[14],0.687 µM (active)
same,EC50,Streptococcus,2.57 µM (active)
same,EC50,[15],> 60 µM (inconclusive)
same,EC50,[8],9.19 µM (active)
same,EC50,[9],5.74 µM (active)
same,EC50,[16],> 160 µM (inactive)
same,AC50,[17],4.49 µM (active)
same,EC50,[10],5.85 µM (active)
same,EC50,[18],3.06 µM (active)
same,EC50,cells [1],13.4 µM (active)
same,EC50,cells [2],> 350 µM (not active)
same,EC50,[12],2.46 µM (active)
COc1cccc(C2C3=C(N=c4s/c(=C\c5cccc(O)c5)c(=O)n42)c2ccccc2CC3)c1OC (centres undefined),EC50,[19],13.9 µM (active)
same,EC50,Streptococcus,> 150 µM (not active)
same,EC50,Streptokinase A,6.31 µM (active)
same,AC50,[17],4.06 µM (active)
same,EC50,[20],15.3 µM (active)
same,CC50,[21],32.5 µM (active)
same,EC50,[12],20.8 µM (active)
